The values below come from ChEMBL document CHEMBL2407022, “Advancement of Imidazo[1,2-a]pyridines with Improved Pharmacokinetics and Nanomolar Activity Against Mycobacterium tuberculosis” (ACS Med Chem Lett, 2013).

SMILES strings stand for the structures. Values after ≈ are worked out from the molar mass of the structure shown. Active and inactive are the calls of the source. The calls are words filed in the database; no cut-off is given here.

For series [1], the system named is Mycobacterium tuberculosis. Put plainly: Antimycobacterial activity against Mycobacterium tuberculosis H37Rv expressing pCHERRY3 after 4 days by plate format assay in presence of bovine serum albumin. It is filed as functional, organism-based.
Series [2] in a line: Drug metabolism in rat liver microsomes at 2 uM after 30 mins by LC-MS analysis. Type of series: ADME, Microsome. The settings on record: read-out: Drug metabolism.
Series [3] relates to Mycobacterium tuberculosis. The experiment in a line: Antimycobacterial activity against Mycobacterium tuberculosis H37Rv expressing pCHERRY3 after 4 days by plate format assay. Type of series: functional. The note with it: 96 h.
Series [4] has as its system Mycobacterium tuberculosis. The experiment in a line: Antimycobacterial activity against drug-sensitive Mycobacterium tuberculosis clinical isolate 2 after 14 days. It is filed as functional. The settings on record: clinical isolate 2, 336 h.
In series [5] the test system is Mycobacterium tuberculosis. The experiment in a line: Antimycobacterial activity against isoniazid, rifampin, ethambutol, pyrazinamide, streptomycin, kanamycin and p-aminosalicylic acid-resistant Mycobacterium tuberculosis after 14 days. Type of series: functional. The settings on record: 336 h.
Series [6] deals with Mycobacterium tuberculosis. The experiment in a line: Antimycobacterial activity against drug-sensitive Mycobacterium tuberculosis clinical isolate 1 after 14 days. The settings on record: clinical isolate 1, 336 h. Type of series: functional.
For series [7], the system named is Mycobacterium tuberculosis. Put plainly: Antimycobacterial activity against isoniazid, rifampin, ethambutol, kanamycin and p-aminosalicylic acid-resistant Mycobacterium tuberculosis after 14 days. Type of series: functional. The note with it: 336 h.
Series [8] concerns the target Cytochrome P450 2C9 (Homo sapiens, UniProt P11712). The experiment in a line: Time dependent inhibition of CYP3A4 in human liver microsomes using midazolam as substrate at 10 uM after 10 mins. It is filed as ADME, Microsome. Background: Microsomes from liver hold many membrane-bound enzymes, among them those of drug oxidation.
A short description of series [9]: Drug metabolism in human liver microsomes assessed as monohydroxylations on imidazopyridine at 2 uM after 30 mins by LC/MS/MS analysis. It is filed as ADME, Microsome. The settings on record: 0.5 h.
Series [10] in a line: Half life in Balb/c mouse at 10 mg/kg, po. It is filed as ADME, organism-based. The arrangement: dose 10 mg/kg, route oral. The settings on record: in vivo.
The nature of series [11]: Drug metabolism in rat liver microsomes assessed as monohydroxylations on imidazopyridine at 2 uM after 30 mins by LC/MS/MS analysis. It is filed as ADME, Microsome. The note with it: 0.5 h.
A short description of series [12]: Drug metabolism in mouse liver microsomes assessed as monohydroxylations on imidazopyridine at 2 uM after 30 mins by LC/MS/MS analysis. The settings on record: 0.5 h. Type of series: ADME, Microsome.
A short description of series [13]: Tmax in Balb/c mouse at 3 mg/kg, po. It is filed as ADME, organism-based. Set-up: dose 3 mg/kg, route oral. The note with it: in vivo.
Series [14] in a line: Tmax in Balb/c mouse at 10 mg/kg, po. Type of series: ADME, organism-based. Set-up: dose 10 mg/kg, route oral. The settings on record: in vivo.
Series [15] is described as follows: Clearance in Balb/c mouse at 1 mg/kg, iv. It is filed as ADME, organism-based. The arrangement: dose 1 mg/kg, route intravenous. The note with it: in vivo.
Series [16] in a line: Drug metabolism in mouse liver microsomes at 2 uM after 30 mins by LC-MS analysis. It is filed as ADME, Microsome. The settings on record: read-out: Drug metabolism.
Series [17] in a line: Half life in Balb/c mouse at 100 mg/kg, po. It is filed as ADME, organism-based. Set-up: dose 100 mg/kg, route oral. The note with it: in vivo.
Series [18] in a line: Drug metabolism in human liver microsomes at 2 uM after 30 mins by LC-MS analysis. Type of series: ADME, Microsome. The settings on record: read-out: Drug metabolism.
Series [19] addresses CYP2D6 (Homo sapiens, UniProt P10635). Put plainly: Inhibition of CYP2D6 in human liver microsomes using bufuralol as substrate at 10 uM after 10 mins. The settings on record: probe bufuralol. It is filed as ADME, Microsome.
For series [20], the target named is CYP3A4 (Homo sapiens, UniProt P11712). The experiment in a line: Inhibition of CYP3A4 in human liver microsomes using midazolam as substrate at 10 uM after 10 mins. Type of series: ADME, Microsome. The settings on record: probe midazolam.
Series [21] can be described thus: Drug metabolism in dog liver microsomes at 2 uM after 30 mins by LC-MS analysis. Type of series: ADME, Canis lupus familiaris, Microsome. The settings on record: read-out: Drug metabolism.
Series [22] concerns the target CYP2C9 (Homo sapiens, UniProt P11712). The experiment in a line: Inhibition of CYP2C9 in human liver microsomes using diclofenac as substrate at 10 uM after 10 mins. Type of series: ADME, Microsome. The settings on record: probe diclofenac.
The nature of series [23]: Tmax in Balb/c mouse at 100 mg/kg, po. Type of series: ADME, organism-based. Set-up: dose 100 mg/kg, route oral. The settings on record: in vivo.
The nature of series [24]: Half life in Balb/c mouse at 3 mg/kg, po. The note with it: in vivo. It is filed as ADME, organism-based. The arrangement: dose 3 mg/kg, route oral.

Cytochrome P450 2C9, sequence (P11712 whole entry): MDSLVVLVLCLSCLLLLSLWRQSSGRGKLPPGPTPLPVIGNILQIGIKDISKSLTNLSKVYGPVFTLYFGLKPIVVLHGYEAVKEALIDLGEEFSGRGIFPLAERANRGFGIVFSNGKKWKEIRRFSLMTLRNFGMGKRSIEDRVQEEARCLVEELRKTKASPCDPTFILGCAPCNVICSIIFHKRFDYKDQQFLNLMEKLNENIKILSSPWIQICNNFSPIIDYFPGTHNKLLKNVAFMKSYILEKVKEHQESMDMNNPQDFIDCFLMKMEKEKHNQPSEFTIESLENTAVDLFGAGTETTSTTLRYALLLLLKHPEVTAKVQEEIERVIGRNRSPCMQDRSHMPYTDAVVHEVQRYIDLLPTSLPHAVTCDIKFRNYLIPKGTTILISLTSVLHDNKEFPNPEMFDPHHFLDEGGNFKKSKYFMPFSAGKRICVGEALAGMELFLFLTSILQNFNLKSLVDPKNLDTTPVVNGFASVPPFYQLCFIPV
CYP2D6, sequence (P10635 whole entry): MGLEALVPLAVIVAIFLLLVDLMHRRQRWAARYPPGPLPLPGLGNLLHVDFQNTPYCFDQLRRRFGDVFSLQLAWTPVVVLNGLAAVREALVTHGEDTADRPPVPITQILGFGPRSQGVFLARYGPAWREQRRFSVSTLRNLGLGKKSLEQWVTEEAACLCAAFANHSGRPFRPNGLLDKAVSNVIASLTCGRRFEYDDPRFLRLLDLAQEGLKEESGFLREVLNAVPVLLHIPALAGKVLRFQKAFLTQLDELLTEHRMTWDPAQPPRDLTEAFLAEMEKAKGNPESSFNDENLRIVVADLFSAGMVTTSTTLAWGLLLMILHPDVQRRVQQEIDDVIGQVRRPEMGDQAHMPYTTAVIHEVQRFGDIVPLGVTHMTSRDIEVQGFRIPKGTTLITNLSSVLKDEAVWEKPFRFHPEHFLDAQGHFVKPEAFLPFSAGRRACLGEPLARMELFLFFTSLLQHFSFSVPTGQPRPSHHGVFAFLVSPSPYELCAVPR
CYP2C9, sequence (P11712 whole entry): as the sequence (P11712 whole entry) above
CYP3A4, sequence (P11712 whole entry): as above

For the compound `Cc1ccn2c(C(=O)NCc3ccccc3)c(C)nc2c1`, the outcome in series [1] was Active. Also, the metabolised at 0.5 h, 2 µM in series [2] came out at 71%. Besides, the MIC99 (commonly an inhibitory concentration at the 99% level, which refers to growth in some studies and to a panel of isolates in others) in series [3] was determined as 0.2 µM (≈ 0.0559 µg/mL).

`Cc1ccc2nc(C)c(C(=O)NCc3ccc(S(C)(=O)=O)cc3)n2c1` showed an MIC99 in series [3] of 0.4 µM (≈ 0.143 µg/mL).

As for `Cc1ccc2nc(C)c(C(=O)NCc3ccccc3)n2c1`, the MIC99 was less than 0.04 µM in series [4]; less than 0.04 µM in series [5]; 0.04 µM (≈ 0.0112 µg/mL) in [6]; 0.006 µM (≈ 0.00168 µg/mL) in series [3]; less than 0.04 µM in series [7].

`NNC(=O)c1ccncc1` [ISONIAZID]: in series [3], the MIC99 was found to be 0.3 µM (≈ 0.0411 µg/mL).

In [3], `COc1cccc(CNC(=O)c2c(C)nc3cc(Cl)ccn23)c1` displayed an MIC99 of 1.1 µM (≈ 0.363 µg/mL).

`Cc1ccc2nc(C(F)(F)F)c(C(=O)NCc3ccc(S(C)(=O)=O)cc3)n2c1` came in with an MIC99 in [3] of 0.9 µM (≈ 0.37 µg/mL).

In series [3], `Cc1nc2c(C)cccn2c1C(=O)NCc1ccc(Oc2ccc(F)cc2)cc1` gave an MIC99 of 0.1 µM (≈ 0.0389 µg/mL).

`Cc1ccn2c(C(=O)NCc3ccc(S(N)(=O)=O)cc3)c(C)nc2c1`: the MIC99 in series [3] was more than 20 µM.

Take `O=[N+]([O-])c1cn2c(n1)OC[C@@H](OCc1ccc(OC(F)(F)F)cc1)C2` [PRETOMANID]: the MIC99 was more than 13.9 µM in series [4]; 0.5 µM (≈ 0.18 µg/mL) in series [5]; 0.5 µM (≈ 0.18 µg/mL) in series [6]; 0.6 µM (≈ 0.216 µg/mL) in series [3]; 0.5 µM (≈ 0.18 µg/mL) in series [7].

`C[C@H]1COC2(CCN(c3nc(=O)c4cc(C(F)(F)F)cc([N+](=O)[O-])c4s3)CC2)O1` [BTZ-043] showed an MIC99 in [3] of 0.003 µM (≈ 0.00129 µg/mL). This lies in the single-digit nanomolar range.

In turn, `CO[C@H]1/C=C/O[C@@]2(C)Oc3c(C)c(O)c4c(O)c(c(/C=N/N5CCN(C)CC5)c(O)c4c3C2=O)NC(=O)/C(C)=C\C=C\[C@H](C)[C@H](O)[C@@H](C)[C@@H](O)[C@@H](C)[C@H](OC(C)=O)[C@@H]1C` [RIFAMPIN] registered an MIC99 in series [3] of 0.003 µM (≈ 0.00247 µg/mL).

On to `COc1cccc(NC(=O)c2c(C)nc3cc(C)ccn23)c1`, for which the MIC99 in [3] is more than 20 µM.

On to `Cc1ccn2c(C(=O)NCc3ccc(Oc4ccc(F)cc4)cc3)c(C)nc2c1`, for which, in [1], the outcome was Active. For the same compound, the “inhibition (INH)” value in series [8] is given as “Active”. The MIC99 in series [4] was less than 0.03 µM; in [6], less than 0.03 µM; in series [3], 0.004 µM (≈ 0.00156 µg/mL); in series [7] it was less than 0.03 µM. Moreover, the MIC90 (as a rule, an inhibitory concentration at the 90% level, which refers to growth in some studies and to a panel of isolates in others) in series [5] stood at 0.03 µM (≈ 0.0117 µg/mL). Also, the Drug metabolism entry in series [9], in series [11] and in series [12] was “Active” throughout. In series [10], the half-life – broadly, how long it takes for the measured level to halve – was 13.2 h. The Tmax in series [13] and in series [14] was 0.5 h in each case.

On to `Cc1ccn2c(C(=O)NCc3ncc(C(F)(F)F)cc3Cl)c(C)nc2c1`, for which the outcome in series [1] was Active. Moreover, the “inhibition (INH)” value in series [8] is “Active”. Moreover, in series [15], the clearance – broadly, the volume of plasma or blood freed of the substance per unit of time – was found to be 2.59 L/h/kg. Besides, the metabolised at 0.5 h, 2 µM in series [16] is 79.9%; in series [2], 19.3%; in series [18], 0%; in [21], 41.2%. Further, the values for the half-life in series [17] and in series [24] were 1.93 h and 5 h, respectively. The MIC99 was 6.5 µM (≈ 2.49 µg/mL) in series [5], 0.7 µM (≈ 0.268 µg/mL) in [3] and 0.4 µM (≈ 0.153 µg/mL) in series [7]. The Drug metabolism entry in series [9], in series [11] and in series [12] was “Active” each time. Further, the results for the inhibition at 10 min, 10 µM in series [19], in [20] and in series [22] were 2.8%, 0% and 11.5%, respectively. Further, the Tmax (in general, the time at which the peak concentration occurs) in [23] is 2 h; in series [13] it was 0.25 h.

Consider `Cc1ccc2nc(C)c(C(=O)NCc3ccc(Oc4ccc(F)cc4)cc3)n2c1`, for which, in series [3], the MIC99 turned out to be 0.005 µM (≈ 0.00195 µg/mL). That is a single-digit nanomolar value.
